US10208089B2, “Modulation of complement activity” (priority 2014, dated 2019)
“Also recorded” adds a separate entry of the source. Where two headings read alike, the source gives them in different places. Starred links: 1 amine or outer side, 2 acyl side, 3 side chain; linkers in the order of their positions; H or OH if unused. Positions of bridges follow the written chain, without caps; N, C: chain ends. Non-standard residues stand in square brackets, D forms with d. Residues, ends and D or L forms follow the SMILES beside them. Ala(1H-tetrazol-5-yl) = N[C@@H](Cc1nnn[nH]1)C(=O)O; Trp(7-aza) = N[C@@H](Cc1c[nH]c2ncccc12)C(=O)O; mXylylene = c1cc(C[*:1])cc(C[*:2])c1; Chg = N[C@H](C(=O)O)C1CCCCC1; Phg = N[C@H](C(=O)O)c1ccccc1; Tle = CC(C)(C)[C@H](N)C(=O)O; NMeS = CN[C@@H](CO)C(=O)O; Nva = CCC[C@H](N)C(=O)O

Tests used:
C5 [1] = molecular target: T1, C5 (Homo sapiens, UniProt P01031); assay: Competitive fluorescence polarization assay with probe R3076; type: binding; parameters: purchased Complement Technology, Tyler, Tex
T1 sequence (P01031 19-1676): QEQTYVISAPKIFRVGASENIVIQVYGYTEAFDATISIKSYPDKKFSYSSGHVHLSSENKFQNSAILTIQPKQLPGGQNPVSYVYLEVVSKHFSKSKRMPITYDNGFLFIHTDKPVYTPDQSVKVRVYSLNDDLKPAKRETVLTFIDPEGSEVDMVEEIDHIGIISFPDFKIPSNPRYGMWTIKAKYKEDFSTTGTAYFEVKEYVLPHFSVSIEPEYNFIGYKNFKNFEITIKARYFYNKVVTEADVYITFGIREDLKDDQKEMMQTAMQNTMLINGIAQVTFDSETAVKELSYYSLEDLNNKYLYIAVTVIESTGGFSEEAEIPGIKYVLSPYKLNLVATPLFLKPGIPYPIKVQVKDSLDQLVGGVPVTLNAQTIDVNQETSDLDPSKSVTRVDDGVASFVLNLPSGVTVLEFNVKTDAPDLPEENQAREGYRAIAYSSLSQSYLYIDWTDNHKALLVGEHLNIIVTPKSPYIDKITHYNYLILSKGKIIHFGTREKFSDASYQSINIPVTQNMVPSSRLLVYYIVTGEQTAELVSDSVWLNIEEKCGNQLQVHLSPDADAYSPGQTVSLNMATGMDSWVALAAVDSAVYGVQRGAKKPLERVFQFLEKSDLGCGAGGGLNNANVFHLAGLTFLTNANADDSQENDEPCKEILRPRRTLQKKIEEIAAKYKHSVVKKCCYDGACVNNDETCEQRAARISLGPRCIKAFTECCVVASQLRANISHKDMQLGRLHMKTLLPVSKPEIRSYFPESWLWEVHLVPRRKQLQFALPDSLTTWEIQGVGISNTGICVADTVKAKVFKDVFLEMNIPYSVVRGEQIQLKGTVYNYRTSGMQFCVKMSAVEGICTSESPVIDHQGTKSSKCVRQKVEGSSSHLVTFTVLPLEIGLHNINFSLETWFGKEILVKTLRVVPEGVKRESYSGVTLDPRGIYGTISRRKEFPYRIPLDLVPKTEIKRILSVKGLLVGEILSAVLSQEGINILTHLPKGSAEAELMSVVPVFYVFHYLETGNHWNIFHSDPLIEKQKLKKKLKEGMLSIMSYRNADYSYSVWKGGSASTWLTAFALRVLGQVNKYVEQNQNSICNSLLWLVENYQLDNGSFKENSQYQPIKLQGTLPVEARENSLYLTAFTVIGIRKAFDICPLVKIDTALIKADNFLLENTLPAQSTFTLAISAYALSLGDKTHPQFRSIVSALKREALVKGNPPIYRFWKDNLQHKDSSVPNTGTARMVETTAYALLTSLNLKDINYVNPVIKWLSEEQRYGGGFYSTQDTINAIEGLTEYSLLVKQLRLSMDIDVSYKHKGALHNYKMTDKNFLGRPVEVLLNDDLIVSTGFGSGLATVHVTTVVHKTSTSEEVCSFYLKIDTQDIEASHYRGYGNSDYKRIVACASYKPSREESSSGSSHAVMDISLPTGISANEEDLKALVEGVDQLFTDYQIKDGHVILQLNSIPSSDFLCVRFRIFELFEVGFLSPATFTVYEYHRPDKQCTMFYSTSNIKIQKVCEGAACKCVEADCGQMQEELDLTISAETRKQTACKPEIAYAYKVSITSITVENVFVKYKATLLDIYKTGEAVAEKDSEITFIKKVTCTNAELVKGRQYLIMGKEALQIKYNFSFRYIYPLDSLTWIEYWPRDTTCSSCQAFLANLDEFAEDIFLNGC
Description: FP allows binding events to be measured in a homogenous solution.
Polarization was measured over time, until binding reached equilibrium. KD was determined using Graphpad Prism (using “Saturating Binding Curves, One Site—Specific Binding With Hill Slope” as the curve fit to determine KD).
10 μl of this working stock was then added to each well in the assay plate. The assay plate was incubated at room temperature, protected from light, for 20 minutes to allow binding to reach equilibrium.
Test articles listed in Table 7 were subsequently diluted in DMSO then assay buffer, comprising 10 2-fold dilutions and were then added to the assay plate in triplicate, rapidly. The assay plate was then incubated in the Paradigm (Molecular Devices, Sunnyvale, Calif.) plate reader for 60 minutes at 25° C.
After incubation for 60 minutes, the plate was read using the Paradigm FP protocol (Molecular Devices, Sunnyvale, Calif.) and raw polarization values were imported into Graphpad Prism.

C5 [2] = molecular target: T1, C5; assay: Human hemolysis assay (RBC lysis assay using complete human sera); type: cell-based; parameters: with complete human sera (Complement Technology, Tyler Tex.) and polypeptides; tissue Complement Technology, Tyler Tex; host or cells: complete human serum; conditions: inhibition of lysis of antibody-sensitized sheep erythrocytes, complete human sera
[3] = average of Exp 1 and Exp 2, read-out: Avg, nM IC50
[4] = competition with probe R3076 25 nM, C5 50 nM, 60 min at 25° C., experiment 1, read-out: IC50 nM, Exp 1
[5] = competition with probe R3076 25 nM, C5 50 nM, 60 min at 25° C., experiment 1, read-out: Ki nM, Exp 1
[6] = competition with probe R3076 25 nM, C5 50 nM, 60 min at 25° C., experiment 2, read-out: IC50 nM, Exp 2
[7] = competition with probe R3076 25 nM, C5 50 nM, 60 min at 25° C., experiment 2, read-out: Ki nM, Exp 2
[8] = average of Exp 1 and Exp 2, read-out: Avg, nM Ki

CCC[C@H](NC(C)=O)C(=O)N[C@@H](CS)C(=O)N[C@@H](Cc1ccc(O)cc1)C(=O)N[C@@H](CCC(=O)O)C(=O)N[C@@H](CC(N)=O)C(=O)N[C@H](C(=O)N[C@@H](Cc1ccc(O)cc1)C(=O)N[C@@H](Cc1c[nH]c2ncccc12)C(=O)N[C@@H](CCC(=O)O)C(=O)N[C@@H](Cc1ccc(O)cc1)C(=O)N1CCC[C@H]1C(=O)N[C@H](C(=O)N1CCC[C@H]1C(N)=O)c1ccccc1)C(C)(C)C [Compound R3003, Ac-Nvl-C-Y-E-N-Tbg-Y-azaTrp-E-Y-P-Phg-P-NH2] (Ac-[Nva]CYEN[Tle]Y[Trp(7-aza)]EYP[Phg]P-NH2)
IC50 (C5 [1]; [3]): 68.4 nM
IC50 (C5 [1]; [4]): 72.7 nM
Ki (C5 [1]; [5]): 10.4 nM
IC50 (C5 [1]; [6]): 64.1 nM
Ki (C5 [1]; [7]): 8.69 nM
competition with labeled probe / affinity for C5 (in words) (C5 [1]; probe R3076 25 nM, C5 50 nM): most potent
Ki (C5 [1]; probe R3076 25 nM, C5 50 nM, read-out: Ki): 9.54 nM
IC50 (C5 [2]): 13.9 nM

CCC[C@H](NC(C)=O)C(=O)N[C@H]1CSCc2cccc(c2)CSC[C@@H](C(=O)N[C@@H](CCC)C(=O)N2CCC[C@H]2C(N)=O)NC(=O)[C@H](Cc2c[nH]cn2)NC(=O)[C@H](CO)N(C)C(=O)[C@H](Cc2ccc(O)cc2)NC(=O)[C@H](CCC(=O)O)NC(=O)[C@H](Cc2c[nH]c3ncccc23)NC(=O)[C@H]([C@@H](C)O)NC(=O)[C@H](c2ccccc2)NC1=O [Compound R3011, [mXylyl(2,10)]Ac-Nvl-C-Phg-T-azaTrp-E-Y-(N-Me)S-H-C-Nvl-P-NH2] (Ac-[Nva]C[Phg]T[Trp(7-aza)]EY[NMeS]HC[Nva]P-NH2; linker 2-10 via mXylylene)
IC50 (C5 [1]; [3]): 278 nM
Ki (C5 [1]; [8]): 80 nM
IC50 (C5 [1]; [4]): 295 nM
Ki (C5 [1]; [5]): 73.2 nM
IC50 (C5 [1]; [6]): 261 nM
Ki (C5 [1]; [7]): 86.9 nM
competition with labeled probe / affinity for C5 (in words) (C5 [1]; probe R3076 25 nM, C5 50 nM): relatively strong affinity
IC50 (C5 [2]): 112 nM

CCC[C@H](NC(=O)[C@@H]1CCCN1C(=O)[C@H](CCC)NC(=O)[C@@H]1CSCc2cccc(c2)CSC[C@H](NC(C)=O)C(=O)N[C@@H](c2ccccc2)C(=O)N[C@@H]([C@@H](C)O)C(=O)N[C@@H](Cc2c[nH]c3ncccc23)C(=O)N[C@@H](CCC(=O)O)C(=O)N[C@@H](Cc2ccc(O)cc2)C(=O)N(C)[C@@H](CO)C(=O)N[C@@H](Cc2c[nH]cn2)C(=O)N1)C(N)=O [Compound R3014, [mXylyl(1,9)]Ac-C-Phg-T-azaTrp-E-Y-(N-Me)S-H-C-Nvl-P-Nvl-NH2] (Ac-C[Phg]T[Trp(7-aza)]EY[NMeS]HC[Nva]P[Nva]-NH2; linker 1-9 via mXylylene)
IC50 (C5 [1]; [3]): 6820 nM
Ki (C5 [1]; [8]): 1490 nM
IC50 (C5 [1]; [4]): 6060 nM
Ki (C5 [1]; [5]): 1400 nM
IC50 (C5 [1]; [6]): 7580 nM
Ki (C5 [1]; [7]): 1590 nM
competition with labeled probe / affinity for C5 (in words) (C5 [1]; probe R3076 25 nM, C5 50 nM): weak affinity
IC50 (C5 [2]): 1420 nM

CCC[C@H](NC(=O)[C@H](Cc1ccc(O)cc1)NC(=O)[C@H](CC(N)=O)NC(=O)[C@H](CCC)NC(=O)[C@H](CCC(=O)O)NC(=O)[C@@H](NC(=O)[C@H](Cc1c[nH]c2ncccc12)NC(=O)[C@@H](NC(=O)[C@H](CS)NC(=O)[C@H](Cc1ccc(O)cc1)NC(=O)[C@@H]1CCCN1C(=O)[C@H](Cc1ccc(O)cc1)NC(C)=O)c1ccccc1)C(C)(C)C)C(=O)N[C@@H](CCC(=O)O)C(N)=O [Compound R3023, Ac-Y-P-Y-C-Phg-azaTrp-Tbg-E-Nvl-N-Y-Nvl-E-NH2] (Ac-YPYC[Phg][Trp(7-aza)][Tle]E[Nva]NY[Nva]E-NH2)
IC50 (C5 [1]; [3]): > 1000 nM
Ki (C5 [1]; [8]): > 1000 nM
IC50 (C5 [1]; [4]): > 1000 nM
Ki (C5 [1]; [5]): > 1000 nM
IC50 (C5 [1]; [6]): > 1000 nM
Ki (C5 [1]; [7]): > 1000 nM
competition with labeled probe / affinity for C5 (in words) (C5 [1]; probe R3076 25 nM, C5 50 nM): no activity at the highest concentration tested; also recorded: not detected at the highest concentration tested; also recorded: no affinity
IC50 (C5 [2]): > 100000 nM

CSCC[C@H](N)C(=O)N[C@H]1CSCc2cccc(c2)CSC[C@@H](C(=O)N[C@@H](CC(=O)O)C(=O)N[C@H](C(=O)N[C@@H](Cc2ccc(O)cc2)C(=O)N[C@@H](Cc2c[nH]c3ccccc23)C(=O)N[C@@H](CCC(=O)O)C(N)=O)C(C)C)NC(=O)[C@H](Cc2ccccc2)NC(=O)[C@H](CCCNC(=N)N)NC(=O)[C@H](CCC(=O)O)NC(=O)[C@H](C(C)C)NC1=O [Compound R3043, [mXylyl(2,7)]M-C-V-E-R-F-C-D-V-Y-W-E-NE2] (H-MCVERFCDVYWE-NH2; linker 2-7 via mXylylene)
IC50 (C5 [1]; [3]): 4230 nM
Ki (C5 [1]; [8]): 874 nM
IC50 (C5 [1]; [4]): 4330 nM
Ki (C5 [1]; [5]): 866 nM
IC50 (C5 [1]; [6]): 4120 nM
Ki (C5 [1]; [7]): 882 nM
competition with labeled probe / affinity for C5 (in words) (C5 [1]; probe R3076 25 nM, C5 50 nM): weak affinity
IC50 (C5 [2]): 934 nM

CC(=O)N[C@H]1CSCc2cccc(c2)CSC[C@@H](C(=O)N[C@@H](CC(=O)O)C(=O)N[C@H](C(=O)N[C@@H](Cc2ccc(O)cc2)C(=O)N[C@@H](Cc2c[nH]c3ncccc23)C(=O)N[C@@H](CCC(=O)O)C(=O)N[C@@H](Cc2ccc(O)cc2)C(=O)N2CCC[C@H]2C(=O)N[C@@H](C(=O)N[C@@H](CCCCN)C(N)=O)c2ccccc2)C(C)(C)C)NC(=O)[C@H](Cc2ccccc2)NC(=O)[C@H](CCCNC(=N)N)NC(=O)[C@H](CCC(=O)O)NC(=O)[C@H](C)NC1=O [Compound R3162, [mXylyl(1,6)]Ac-C-A-E-R-F-C-D-Tbg-Y-azaTrp-E-Y-P-(D-Phg)-K-NH2]
IC50 (C5 [2]): 16.5 nM

CCCCCCCCCCCC(=O)NCCCC[C@H](NC(=O)[C@@H](NC(=O)[C@@H]1CCCN1C(=O)[C@H](Cc1ccc(O)cc1)NC(=O)[C@H](CCC(=O)O)NC(=O)[C@H](Cc1c[nH]c2ncccc12)NC(=O)[C@H](Cc1ccc(O)cc1)NC(=O)[C@@H](NC(=O)[C@H](CC(=O)O)NC(=O)[C@@H]1CSCc2cccc(c2)CSC[C@H](NC(C)=O)C(=O)N[C@@H](C)C(=O)N[C@@H](CCC(=O)O)C(=O)N[C@@H](CCCNC(=N)N)C(=O)N[C@@H](Cc2ccccc2)C(=O)N1)C(C)(C)C)c1ccccc1)C(N)=O [Compound R3164, [mXylyl(1,6)]Ac-C-A-E-R-F-C-D-Tbg-Y-azaTrp-E-Y-P-Phg-(Lys-C12)-NH2]
IC50 (C5 [2]): 36 nM

CCCCCCCC(=O)NCCCC[C@H](NC(=O)[C@@H](NC(=O)[C@@H]1CCCN1C(=O)[C@H](Cc1ccc(O)cc1)NC(=O)[C@H](CCC(=O)O)NC(=O)[C@H](Cc1c[nH]c2ncccc12)NC(=O)[C@H](Cc1ccc(O)cc1)NC(=O)[C@@H](NC(=O)[C@H](CC(=O)O)NC(=O)[C@@H]1CSCc2cccc(c2)CSC[C@H](NC(C)=O)C(=O)N[C@@H](C)C(=O)N[C@@H](CCC(=O)O)C(=O)N[C@@H](CCCNC(=N)N)C(=O)N[C@@H](Cc2ccccc2)C(=O)N1)C(C)(C)C)c1ccccc1)C(N)=O [Compound R3166, [mXylyl(1,6)]Ac-C-A-E-R-F-C-D-Tbg-Y-azaTrp-E-Y-P-Phg-(Lys-C8)-NH2]
IC50 (C5 [2]): 17.5 nM

CCC[C@H](NC(=O)[C@@H](NC(=O)[C@@H]1CCCN1C(=O)[C@H](Cc1ccc(O)cc1)NC(=O)[C@H](CCC(=O)O)NC(=O)[C@H](Cc1c[nH]c2ncccc12)NC(=O)[C@H](Cc1ccc(O)cc1)NC(=O)[C@@H](NC(=O)[C@H](Cc1nnn[nH]1)NC(=O)[C@@H]1CSCc2cccc(c2)CSC[C@H](NC(C)=O)C(=O)N[C@@H](C(C)C)C(=O)N[C@@H](CCC(=O)O)C(=O)N[C@@H](CCCNC(=N)N)C(=O)N[C@@H](Cc2ccccc2)C(=O)N1)C(C)(C)C)C1CCCCC1)C(N)=O [Compound R3168, [mXylyl(1,6)]Ac-C-V-E-R-F-C-Asp(T)-Tbg-Y-azaTrp-E-Y-P-Chg-Nvl-NH2] (Ac-CVERFC[Ala(1H-tetrazol-5-yl)][Tle]Y[Trp(7-aza)]EYP[Chg][Nva]-NH2; linker 1-6 via mXylylene)
IC50 (C5 [2]): 7.5 nM

CCC[C@H](NC(=O)[C@@H](NC(=O)[C@@H]1CCCN1C(=O)[C@H](Cc1ccc(O)cc1)NC(=O)[C@H](CCC(=O)O)NC(=O)[C@H](Cc1c[nH]c2ncccc12)NC(=O)[C@H](Cc1ccc(O)cc1)NC(=O)[C@@H](NC(=O)[C@H](CC(=O)O)N(C)C(=O)[C@@H]1CSCc2cccc(c2)CSC[C@H](NC(C)=O)C(=O)N[C@@H](C(C)C)C(=O)N[C@@H](CCC(=O)O)C(=O)N[C@@H](CCCNC(=N)N)C(=O)N[C@@H](Cc2ccccc2)C(=O)N1)C(C)(C)C)C1CCCCC1)C(N)=O [Compound R3172, [mXylyl(1,6)]Ac-C-V-E-R-F-C-(N-Me)D-Tbg-Y-azaTrp-E-Y-P-Chg-Nvl-NH2]
IC50 (C5 [2]): 12 nM
